Experiment [1] deals with T1, Dihydroorotate dehydrogenase (quinone), mitochondrial (Plasmodium falciparum (isolate 3D7)), Q08210 [F188Y].
T1 sequence (whole entry): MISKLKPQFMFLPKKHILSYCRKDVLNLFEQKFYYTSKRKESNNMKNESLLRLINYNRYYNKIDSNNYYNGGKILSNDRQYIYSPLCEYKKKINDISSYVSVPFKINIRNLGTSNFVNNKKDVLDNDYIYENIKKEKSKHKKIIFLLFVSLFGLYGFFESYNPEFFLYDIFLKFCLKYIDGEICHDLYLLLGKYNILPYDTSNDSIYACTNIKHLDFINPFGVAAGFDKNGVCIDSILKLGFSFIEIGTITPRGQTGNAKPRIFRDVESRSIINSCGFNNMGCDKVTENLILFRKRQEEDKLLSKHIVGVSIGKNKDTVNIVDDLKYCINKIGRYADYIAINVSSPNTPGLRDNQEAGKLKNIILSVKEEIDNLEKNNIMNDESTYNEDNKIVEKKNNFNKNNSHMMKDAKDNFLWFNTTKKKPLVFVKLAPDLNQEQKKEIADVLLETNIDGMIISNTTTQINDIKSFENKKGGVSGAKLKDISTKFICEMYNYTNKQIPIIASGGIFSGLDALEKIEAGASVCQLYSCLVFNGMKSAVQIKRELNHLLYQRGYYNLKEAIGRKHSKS
The experiment is described as follows: Inhibition of Plasmodium falciparum […] dehydrogenase F188Y mutant expressed in Escherichia coli BL21(DE3) using […] as substrate at 100 uM by DCIP-based colorimetric analysis.

For experiment [2], the system named is T2, Dihydroorotate dehydrogenase (quinone), mitochondrial (Plasmodium falciparum (isolate 3D7)), Q08210 [C276Y].
T2 sequence (whole entry): T1 sequence (whole entry) with Y188F, C276Y
Briefly: Inhibition of Plasmodium falciparum […] dehydrogenase C276Y mutant expressed in Escherichia coli BL21(DE3) using […] as substrate at 100 uM by DCIP-based colorimetric analysis.

In experiment [3] the test system is T3, Dihydroorotate dehydrogenase (quinone), mitochondrial (Plasmodium falciparum (isolate 3D7)), Q08210 [C276F].
T3 sequence (whole entry): T1 sequence (whole entry) with Y188F, C276F
The experiment is described as follows: Inhibition of Plasmodium falciparum […] dehydrogenase C276F mutant expressed in Escherichia coli BL21(DE3) using […] as substrate at 100 uM by DCIP-based colorimetric analysis.

The test system of experiment [4] is T4, Dihydroorotate dehydrogenase (quinone), mitochondrial (Plasmodium falciparum (isolate 3D7)), Q08210 [H185A].
T4 sequence (whole entry): T1 sequence (whole entry) with H185A, Y188F
The experiment is described as follows: Inhibition of Plasmodium falciparum […] dehydrogenase H185A mutant expressed in Escherichia coli BL21(DE3) using […] as substrate at 100 uM by DCIP-based colorimetric analysis.

The subject of experiment [5] is Plasmodium falciparum. Briefly: Ratio of IC50 for Plasmodium falciparum […] dehydrogenase C276A mutant to IC50 for Plasmodium falciparum wild type […] dehydrogenase.
Experiment [6] is filed under the species Homo sapiens. The experiment is described as follows: Inhibition of human […] dehydrogenase Y147C mutant expressed in Escherichia coli BL21(DE3) using […] as substrate at 100 uM by DCIP-based colorimetric analysis.
The species named for experiment [7] is Homo sapiens. The experiment is described as follows: Inhibition of human […] dehydrogenase Y147A mutant expressed in Escherichia coli BL21(DE3) using […] as substrate at 100 uM by DCIP-based colorimetric analysis.
The species entered for experiment [8] is Homo sapiens. The experiment is described as follows: Inhibition of human […] dehydrogenase H56A mutant expressed in Escherichia coli BL21(DE3) using […] as substrate at 100 uM by DCIP-based colorimetric analysis.
For experiment [9], the species on record is Homo sapiens. Briefly: Ratio of IC50 for human dihydrofolate dehydrogenase Y147F mutant to IC50 for human wild type dihydrofolate dehydrogenase.
In experiment [10] the target is Dihydroorotate dehydrogenase (quinone), mitochondrial (Homo sapiens, UniProt Q02127). Briefly: Inhibition of human […] dehydrogenase expressed in Escherichia coli BL21(DE3) using […] as substrate by DCIP-based colorimetric analysis.
The target in experiment [11] is T5, Dihydroorotate dehydrogenase (Plasmodium falciparum, UniProt Q54A96).
T5 sequence (Q54A96 whole entry): T1 sequence (whole entry) with Y188F
Briefly: Inhibition of Plasmodium falciparum […] dehydrogenase expressed in Escherichia coli BL21(DE3) using […] as substrate by DCIP-based colorimetric analysis.

The species named for experiment [12] is Homo sapiens. The experiment is described as follows: Inhibition of human […] dehydrogenase Y147F mutant expressed in Escherichia coli BL21(DE3) using […] as substrate at 100 uM by DCIP-based colorimetric analysis.
Experiment [13] relates to Plasmodium falciparum. The experiment is described as follows: Ratio of IC50 for Plasmodium falciparum […] dehydrogenase F188A mutant to IC50 for Plasmodium falciparum wild type […] dehydrogenase.
The subject of experiment [14] is Plasmodium falciparum. The experiment is described as follows: Ratio of IC50 for Plasmodium falciparum […] dehydrogenase C276Y mutant to IC50 for Plasmodium falciparum wild type […] dehydrogenase.
Experiment [15] concerns Plasmodium falciparum. Briefly: Ratio of IC50 for Plasmodium falciparum […] dehydrogenase C276F mutant to IC50 for Plasmodium falciparum wild type […] dehydrogenase.
For experiment [16], the system named is Plasmodium falciparum. Briefly: Ratio of IC50 for Plasmodium falciparum […] dehydrogenase H185A mutant to IC50 for Plasmodium falciparum wild type […] dehydrogenase.
Experiment [17] is filed under the species Homo sapiens. Briefly: Ratio of IC50 for human dihydrofolate dehydrogenase Y147C mutant to IC50 for human wild type dihydrofolate dehydrogenase.
The species named for experiment [18] is Homo sapiens. Briefly: Ratio of IC50 for human […] dehydrogenase H56A mutant to IC50 for human wild type […] dehydrogenase.
The species named for experiment [19] is Homo sapiens. The experiment is described as follows: Ratio of IC50 for human dihydrofolate dehydrogenase Y147A mutant to IC50 for human wild type dihydrofolate dehydrogenase.

Substitutions are numbered along the chain they refer to.

Dihydroorotate dehydrogenase (quinone), mitochondrial, sequence (Q02127 whole entry): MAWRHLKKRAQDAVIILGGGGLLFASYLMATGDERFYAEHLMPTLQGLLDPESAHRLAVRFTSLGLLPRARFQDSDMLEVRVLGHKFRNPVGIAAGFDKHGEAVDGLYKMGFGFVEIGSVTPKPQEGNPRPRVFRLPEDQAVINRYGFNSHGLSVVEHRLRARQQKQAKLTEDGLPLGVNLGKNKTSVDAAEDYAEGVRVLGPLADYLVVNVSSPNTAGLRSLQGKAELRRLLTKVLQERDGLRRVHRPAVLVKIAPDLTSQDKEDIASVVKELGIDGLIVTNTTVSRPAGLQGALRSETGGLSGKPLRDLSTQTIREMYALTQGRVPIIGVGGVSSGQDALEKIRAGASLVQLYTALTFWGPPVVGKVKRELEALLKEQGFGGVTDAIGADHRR

For orientation: inhibition means the relative decrease from the control value, in per cent. A higher inhibition goes with a strong effect. One may read the IC50 as the concentration at which inhibition is half-maximal. Low values mean greater potency, high ones weaker potency. In the case of `Cc1cc(O)n2nc(SCc3ccc(Cl)c(Cl)c3)nc2n1`, the inhibition in experiment [1], in [2], in experiment [3], in experiment [4], in experiment [6] and in [7] was under 50% throughout. In addition, the inhibition in experiment [8] is under 50%. The figures for the Ratio IC50 in [5] and in experiment [9] were 2 and 8.8, respectively. The IC50 in [10] is 6.5 µM; in experiment [11], 1.9 µM.

For the compound `Cc1cc(O)n2nc(SCc3ccccc3Cl)nc2n1`, the IC50 came out at 12 µM in experiment [10] and 28 µM in experiment [11].

Consider `Cc1ccc(CSc2nc3[nH]c(C)cc(=O)n3n2)cc1`, for which the figures for the IC50 in [10] and in [11] were 46 µM and 26 µM, respectively.

As to `Cc1cc(O)n2nc(SCc3cccc(Cl)c3)nc2n1`, the IC50 was found to be 29 µM in [10] and 5.6 µM in experiment [11].

With `Cc1cc(O)n2nc(SCc3ccccc3)nc2n1`, the IC50 amounted to 89 µM in [10] and 62 µM in experiment [11].

As to `Cc1cc(C)cc(CSc2nc3nc(C)cc(O)n3n2)c1`, the results for the half-inhibitory concentration (IC50) in [10] and in [11] were 30 µM and 19 µM, respectively.

In the case of `Cc1cc(NCc2ccccc2)n2nc(SCc3ccccc3)nc2n1`, the IC50 in [10] and in experiment [11] was over 100 µM in each case.

On to `Cc1cc(O)n2nc(SCc3ccc(Br)cc3)nc2n1`, for which the IC50 in experiment [10] stood at 32 µM; in [11], 33 µM.

For the compound `Cc1cc(N)n2nc(SCc3ccccc3)nc2n1`, the IC50 in [10] and in experiment [11] was over 100 µM each time.

Turning to `Cc1cc(N)n2nc(SCc3ccc(Cl)c(Cl)c3)nc2n1`, the IC50 in [10] and in [11] was over 100 µM throughout.

For the compound `Cc1cc(=O)n2nc(SCc3ccc(Cl)cc3)nc2[nH]1`, the inhibition in [1], in [2], in [3], in experiment [4], in experiment [12] and in experiment [6] was under 50% each time. Besides, the inhibition in experiment [7] and in experiment [8] was under 50% in each case. Moreover, the Ratio IC50 in experiment [5] is 1.5. The results for the IC50 in experiment [10] and in [11] were 39 µM and 1 µM, respectively.

With `Cc1cc(Nc2ccc3ccccc3c2)n2ncnc2n1`, the Ratio IC50 in experiment [13] worked out at 29; in [14], 3.5; in [15], 2.3; in experiment [5], 0.69; in experiment [16], 19.

On to `Cc1cc(O)n2nc(SCc3ccccc3[N+](=O)[O-])nc2n1`, for which the IC50 in experiment [10] is 9.5 µM; in experiment [11] it was over 100 µM.

Regarding `COc1ccc(CSc2nc3nc(C)cc(O)n3n2)cc1`, the IC50 came to 63 µM in experiment [10] and 21 µM in experiment [11].

In the case of `Cc1cc(O)n2nc(SCc3cc(Cl)ccc3Cl)nc2n1`, the inhibition in experiment [1], in [2], in experiment [3] and in experiment [4] was under 50% in each case. Moreover, the Ratio IC50 worked out at 3.7 in experiment [5]; 1.1 in [9]; 14 in experiment [17]; 7.1 in experiment [18]; 20 in experiment [19]. Further, the IC50 was 0.051 µM in experiment [10] and 11 µM in [11].

For the compound `CCc1cc(O)n2nc(SCc3ccc(Cl)cc3)nc2n1`, the values for the IC50 in experiment [10] and in experiment [11] were 13 µM and over 100 µM, respectively.

In the case of `Cc1cc(O)n2nc(SCc3c(Cl)cccc3Cl)nc2n1`, the IC50 in experiment [10] was found to be 18 µM; in experiment [11], 3.5 µM.

Source of the values: ChEMBL document CHEMBL2177061, “Factors influencing the specificity of inhibitor binding to the human and malaria parasite dihydroorotate dehydrogenases” (J Med Chem, 2012).
